According to patent US6541468B1, “Indolocarbazole derivatives useful for the treatment of neurodegenerative diseases and cancer” (Bayer Corporation, priority 1998, dated 2003):
Read-outs that look alike come from different tables or passages of the source.

How the values were obtained:
cdc2 kinase = target: T1, cdc2 kinase (Homo sapiens, UniProt P06493); assay: cdc2 kinase inhibition assay; format: biochemical; settings: 0.25 mM ATP, human recombinant tau substrate
T1 construct: Human cdc2 kinase was prepared from nocodazole-arrested HeLa cells; endogenous in cells; host or cells: nocodazole-arrested HeLa cells
T1 sequence (P06493 whole entry): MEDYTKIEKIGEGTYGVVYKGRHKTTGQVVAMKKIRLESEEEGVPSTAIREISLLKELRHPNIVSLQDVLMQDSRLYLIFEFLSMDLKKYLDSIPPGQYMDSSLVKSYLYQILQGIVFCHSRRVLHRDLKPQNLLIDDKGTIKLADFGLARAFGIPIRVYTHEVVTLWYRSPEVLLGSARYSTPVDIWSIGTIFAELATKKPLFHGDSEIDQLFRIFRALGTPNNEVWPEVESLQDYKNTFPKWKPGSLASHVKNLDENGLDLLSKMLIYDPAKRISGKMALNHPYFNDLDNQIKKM
T1 sequence (P14635 whole entry partner): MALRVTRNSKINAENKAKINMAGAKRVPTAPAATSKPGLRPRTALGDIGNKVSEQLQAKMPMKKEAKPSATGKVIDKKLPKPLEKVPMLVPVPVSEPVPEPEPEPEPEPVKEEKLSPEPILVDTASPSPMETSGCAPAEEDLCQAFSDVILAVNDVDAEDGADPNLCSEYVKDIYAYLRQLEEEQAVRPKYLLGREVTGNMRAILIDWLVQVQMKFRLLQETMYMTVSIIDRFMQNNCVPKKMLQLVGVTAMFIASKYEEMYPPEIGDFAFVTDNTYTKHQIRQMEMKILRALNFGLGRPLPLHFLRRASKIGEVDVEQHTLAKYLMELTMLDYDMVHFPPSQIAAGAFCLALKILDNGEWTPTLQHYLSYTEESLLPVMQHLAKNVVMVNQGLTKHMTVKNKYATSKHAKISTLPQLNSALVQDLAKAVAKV
Description: Preparation of cdc2 Kinase: Human cdc2 kinase was prepared from nocodazole-arrested HeLa cells according to Marshak D. M. er al., J. Cell Biochem., 45, 391-400 (1991).
cdc2 kinase was assayed in 50 μl 25 mM HEPES, pH 7.0, 1 mM Mg^2+, 0.25 mM ATP (150-300 cpm/pmole), 1 mM DTT, using 0.5 ng cdc2 kinase, 5 μg human recombinant tau as substrate, and 0.1 mg/mL BSA a as carrier.
Enzyme, substrate and inhibitor were preincubated for 5-10 min at 4° C. in assay buffers containing a final concentration of 2% DMSO before initiating the reaction with 0.25 mM γ^2P-ATP. Samples were incubated for 30 min at 37° C. and reactions were terminated with 10% trichloracetic acid/2% sodium pyrophosphate (TCA/PPA), followed by filtration over a glass fiber filtermat (type A) with a cell harvester (Tomtec). The filtermats were washed twice for several hours with TCA/PPA until all background radioactivity was removed. Precipitable counts were quantitated directly on the filtermat with a microbeta scintillation counter system (Wallac-Pharmacia). Inhibitor data were subjected to curve fitting and IC50 values were calculated from these curves using the GraphIt program.

ERK2 activation = assay: Okadaic acid induced ERK2 phosphorylation/activation in SY5Y cells; format: cell-based, human; settings: 1 μM okadaic acid; for IC50: Homo sapiens
Description: SKNSH-SY 5Y cells were plated on fibronectin-coated 6 well (30 mm^2) culture dishes (Biocoat®, Collaborative Biomedical Products, Inc.) and grown to confluence in 5 mL of 50% D-MEM/50% F-12 Nutrient Mixture (Ham) supplemented with 15% heat-inactivated bovine serum (JRH Bioscience), 0.1 mM non-essential amino acids solution, 2 mM glutamine and pen/strep/fungizone (GibcoBRL Life Technologies, Inc.). Cell culture medium was changed every 48 hours.
For drug testing, cells were routinely pretreated with inhibitors in 1 mL (30 mm2) for 60 min at concentrations of 30 nM, 100 nM, 300 nM, […]. Compound stocks were all at 10 mM in DMSO and dilutions were made in DMSO. Cells were then treated with 1 μM okadaic acid (ammonium salt; LC Laboratories, dissolved at 1 mM in DMSO) for 90 min. All experiments, including controls, contained a final concentration of between 0.5 and 1% DMSO.
Cells were detached from 30 mm^2 plates and suspended into 1 mL of ice-cold PBS by gentle trituration, transferred into microcentrifuge tubes and sedimented for 12 seconds at 14,000×g. […] Cell debris was removed by centrifugation at 14,000×g for 5 minutes at 4° C. and cell supernatants were analyzed by anti-ERK2 and anti-tau Western-blotting as described below.
[…] of total cell lysate was run on a 10% tris-glycine polyacrylamide gels (Novex, 1.5 mm×10 well) at 100 volts for 2.5 hors and Western-blotted on nitrocellulose (Novex) overnight at 23 volts or 1.5 hrs at 100V in transfer buffer [Towbin et al. Proc. Natl. Acad. Sci. USA 76, 4350-4354 (1979]) at 4° C. Blots were analyzed for ERK2 and phosphotyrosine immunoreactivity with anti-ERK1+2 (Z033; Zymed Laboratories, Inc.; 1:5,000) and anti-phosphotyrosine (4G10; Upstate Biotechnology Inc.; 1:1,000) mAbs. Blots were also analyzed for phosphorylation-sensitive Tau immuno-reactivity with mAb Tau-1 (Boehringer Mannheim; 1:5,000) and phosphorylation dependent mAb AT8 against FHF-tau (Biosource International; 1:200). Total Tau populations were detected by Tau-1 immunoblotting after treating blots for 16 hrs at 37° C. with 100 units/mL alkaline phosphatase (Gibco BRL) in 5 mL of 50 mM Tris-HCI (pH 8.5), 0.1 mM EDTA. All blots were developed using ECL (enhanced chemiluminescence) Western blotting protocol (Amersham Life Science) with horseradish peroxidase-linked sheep anti-mouse secondary antibody and analyzed on Kodak X-OMAT AR scientific imaging film. […] Changes in tau phosphorylation were assessed by normalizing densitometrically determined mAb Tau-1 immunoreactivities in cell extracts to Tau-1 reaction after dephosphorylation on the blot. […]

[1] = SY5Y, means of triplicate determinations, read-out: Inhibition in SY5Y cells of ERK2 activation IC50

Compound | IC50 (cdc2 kinase) | IC50 (ERK2 activation; [1]) | IC50 (ERK2 activation; SY5Y cells, read-out: IC50 for prevention of okadaic acid induced ERK2 phosphorylation/activation (FIG. 4)) | Concentration at which prevention of ERK2 phosphorylation/activation is complete (ERK2 activation; SY5Y cells)
COC(=O)[C@@]1(O)C[C@H]2C[C@@H]1n1c3ccccc3c3c4c(c5c6ccccc6n2c5c31)C(=O)NC4=O (relative stereo) [CIII, 9,12-Methano-1H-diindolo[1,2,3-fg:3′,2′,1′-kl]pyrrolo[3,4-I][1,6] benzodiazocine-10-carboxylic acid, 2,3,9,10,11,12-hexahydro-10-hydroxy-1,3-dioxomethyl ester, (9α,10β,12α)] | 3800 nM | 5700 nM | ~1000 nM | 10 µM
CNC(=O)[C@]1(O)CC2CC1n1c3ccccc3c3c4c(c5c6ccccc6n2c5c31)C(=O)NC4=O (stereo partly drawn) [CII, 9,12-Methano-1H-diindolo[1,2,3-fg:3′,2′,1′-kl]pyrrolo[3,4-I][1,6] benzodiazocine-10-carboxamide, 2,3,9,10,11,12-hexahydro-10-hydroxy-N-methyl-1,3-dioxo-(9α,10β,12α)] | 44 nM | 570 nM | – | –
